Results on 35 compounds are retold here after patent US7531545B2, “2-amino-3,4-dihydro-pyrido[3,4-d]pyrimidine derivatives useful as inhibitors of β-secretase (BACE)” (Janssen Pharmaceutica, N.V., priority 2005, dated 2009).

pIC50: −log10 of the molar value.

In general, inhibition refers to the relative decrease from the control value, in per cent. The term pIC50 denotes the negative decadic logarithm of the IC50, by convention in mol/L.

For this assay, the target named is human BACE-1 (Homo sapiens, UniProt P56817). The assay can be described thus: CEREP BACE Inhibition Assay. The conditions noted are these: recombinant enzyme; for inhibition at 1 µM: read-out: % Inhibition @ 1.0 μM; for pIC50: read-out: IC50. Type of assay: biochemical. The protocol:
More specifically the assay, run at 50 μL in a 96 well plate, evaluated the effect of test compound on the activity of the human BACE-1 quantified by measuring the formation of Mca-S-E-V-N-L-NH2 from […], using a recombinant enzyme. The test compound, reference compound or water (control) were added to a buffer containing 0.09 M sodium acetate (pH 4.5) and 0.25 μg BACE-1. Compound interference with the fluorimetric detection method due to autofluorescence was then checked by measurements at the wavelengths defined to evaluate the enzyme activity. […] For control basal measurement, the substrate was omitted from the reaction mixture. […] The standard inhibitory reference compound was OM99-2, which was tested in each experiment at several concentrations to obtain an inhibition curve from which its IC50 value was calculated.

[1] abbreviates: 1.0 μM, percent inhibition of the control activity.
Setting [2] is: percent inhibition of the control activity.

Chain of human BACE-1 (P56817 46-501): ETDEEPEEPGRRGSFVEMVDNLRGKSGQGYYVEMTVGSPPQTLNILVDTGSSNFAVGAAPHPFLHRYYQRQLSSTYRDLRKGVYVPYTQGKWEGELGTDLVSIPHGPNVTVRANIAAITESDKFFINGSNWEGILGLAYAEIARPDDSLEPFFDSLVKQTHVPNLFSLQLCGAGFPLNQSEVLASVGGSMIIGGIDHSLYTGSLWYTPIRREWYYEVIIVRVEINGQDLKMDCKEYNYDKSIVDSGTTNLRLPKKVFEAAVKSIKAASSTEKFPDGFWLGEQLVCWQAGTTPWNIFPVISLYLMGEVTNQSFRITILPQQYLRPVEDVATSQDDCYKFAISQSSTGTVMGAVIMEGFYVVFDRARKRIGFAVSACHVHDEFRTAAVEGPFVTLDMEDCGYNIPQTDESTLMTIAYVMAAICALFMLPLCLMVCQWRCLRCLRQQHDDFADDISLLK

Take `NC1=Nc2cnc(Oc3ccccc3)cc2CN1[C@@H](Cn1cc(C2CCCCC2)nn1)C1CCCCC1` [Compound 151]: the pIC50 was 6.82. In addition, under setting [1], the inhibition at 1 µM was 98%.

For the compound `CC(C)[C@H](CCC(=O)N(CC(=O)O)C1CCCCC1)N1Cc2cc(Oc3ccccc3)ncc2N=C1N` [Compound 86], the pIC50 is 6.92. The inhibition at 0.3 µM under setting [2] came out at 99%.

Turning to `CC(C)OC(=O)[C@H](COC(C)(C)C)NC(=O)CC[C@@H](C1CCCCC1)N1Cc2cc(Oc3ccccc3)ncc2N=C1N` [Compound 136], the pIC50 was 6.72. Also, under setting [1], the inhibition at 1 µM is 98%.

For the compound `CC(C)(C)c1cn(CC[C@@H](C2CCCCC2)N2Cc3cc(Oc4ccccc4)ncc3N=C2N)nn1` [Compound 199], the pIC50 was 7.07. For the same compound, the inhibition at 1 µM under setting [1] was found to be 100%.

`COCC(=O)NC1=Nc2cnc(Oc3ccccc3)cc2CN1C(Cn1cc(C(C)(C)C)nn1)C1CCCCC1` (stereo in doubt) [Compound 247, N-{3-[2-(4-tert-Butyl-[1,2,3]triazol-1-yl)-1-(S)-cyclohexyl-ethyl]-6-phenoxy-3,4-dihydro-pyrido[3,4-d]pyrimidin-2-yl}-2-methoxy-acetamide]: the inhibition at 1 µM under setting [1] was 3%.

Regarding `NC1=Nc2cnc(Oc3ccccc3)cc2CN1[C@@H](CN1CC2(CCCCC2)NC1=O)C1CCCCC1` [Compound 135, 3-[2-(2-Amino-6-phenoxy-4H-pyrido[3,4-d]pyrimidin-3-yl)-2-(R)-cyclohexyl-ethyl]-1,3-diaza-spiro[4.5]decan-2-one], the negative logarithm of the IC50 (pIC50) was 6.70. In addition, the inhibition at 1 µM under setting [1] turned out to be 52%.

Take `NC1=Nc2cnc(Oc3ccccc3)cc2CN1[C@@H](CCn1cc(C2CCCCC2)nn1)C1CCCCC1` [Compound 198, 3-[—(S)-cyclohexyl-3-(4-cyclohexyl-[1,2,3]triazol-1-yl)-propyl]-6-phenoxy-3,4-dihydro-pyrido[3,4-d]pyrimidin-2-ylamine]: the pIC50 is 6.85. Also, under setting [1], the inhibition at 1 µM turned out to be 95%.

Regarding `CN(C(=O)CC[C@@H](C1CCOCC1)N1Cc2cc(Oc3ccccc3)ncc2N=C1N)[C@H](COC(C)(C)C)C(=O)O` [Compound 60], the pIC50 was 7.00. Under setting [2], the inhibition at 0.3 µM worked out at 91%.

Consider `CC(C)=CCOC[C@@H](C(C)C)N1Cc2cc(Oc3ccccc3)ncc2N=C1N` [Compound 233, 3-[2-Methyl-1-(3-methyl-but-2-enyloxymethyl)-propyl]-6-phenoxy-3,4-dihydro-pyrido[3,4-d]pyrimidin-2-ylamine], for which the pIC50 was 6.06. Besides, under setting [1], the inhibition at 1 µM is 52%.

Regarding `CC(C)(C)CNC(=O)CC[C@@H](C1CCCCC1)N1Cc2cc(Oc3ccccc3)ncc2N=C1N` [Compound 204], the pIC50 was 7.11. Also, the inhibition at 1 µM under setting [1] stood at 100%.

`CC(C)(C)CCN(CCN)C(=O)CC[C@@H](C1CCCCC1)N1Cc2cc(Oc3ccccc3)ncc2N=C1N` [Compound 146]: the pIC50 was 7.14. The inhibition at 1 µM under setting [1] stood at 100%.

Turning to `CC(C)(C)OC[C@@H](NC(=O)CC[C@@H](C1CCCCC1)N1Cc2cc(Oc3ccccc3)ncc2N=C1N)C(=O)N1CCOCC1` [Compound 103, 4-(2-Amino-6-phenoxy-4H-pyrido[3,4-d]pyrimidin-3-yl)-N-(1-(R)-tert-butoxymethyl-2-morpholin-4-yl-2-oxo-ethyl)-4-(S)-cyclohexyl-butyramide], the pIC50 is 7.09. The inhibition at 0.3 µM under setting [2] was found to be 96%.

Turning to `NC1=Nc2cnc(Oc3ccccc3)cc2CN1[C@@H](CCC(=O)N(CCO)Cc1cccs1)C1CCCCC1` [Compound 141], the pIC50 is 6.92. In addition, the inhibition at 1 µM under setting [1] is 98%.

With `COC(=O)[C@H](COC(C)(C)C)NC(=O)CC[C@@H](C1CCCCC1)N1Cc2cc(Oc3ccccc3)ncc2N=C1N` [Compound 61], the pIC50 was 6.62. For the same compound, the inhibition at 0.3 µM under setting [2] was determined as 81%.

`CC(C)OC(=O)[C@@H](COC(C)(C)C)NC(=O)CC[C@@H](C1CCCCC1)N1Cc2cc(Oc3ccccc3)ncc2N=C1N` [Compound 140, 2-[4-(2-Amino-6-phenoxy-4H-pyrido[3,4-d]pyrimidin-3-yl)-4-cyclohexyl-butyrylamino]-3-tert-butoxy-propionic acid isopropyl ester]: the pIC50 was 6.82. For the same compound, the inhibition at 1 µM under setting [1] turned out to be 98%.

`CN(C(=O)CCC(C1CCCCC1)N1Cc2cc(Oc3ccccc3)ncc2N=C1N)C1CCS(=O)(=O)C1` (stereo not drawn) [Compound 170]: the pIC50 was 6.08. The inhibition at 1 µM under setting [1] amounted to 48%.

In the case of `CC(C)(C)OC(=O)CC[C@@H](C1CCCCC1)N1Cc2cc(Oc3ccccc3)ncc2N=C1N` [Compound 75], the pIC50 is 6.62. For the same compound, under setting [1], the inhibition at 1 µM is 90%.

With `NC1=Nc2cnc(Oc3ccccc3)cc2CN1[C@@H](CCC(=O)N(Cc1ncc[nH]1)C1CCCCC1)C1CCCCC1` [Compound 78, 4-(2-Amino-6-phenoxy-4H-pyrido[3,4-d]pyrimidin-3-yl)-4-(S),N-dicyclohexyl-N-(1H-imidazol-2-ylmethyl)-butyramide], the pIC50 was 6.72. Besides, the inhibition at 0.3 µM under setting [2] turned out to be 91%.

With `C[C@H](CO)N(CCC(C)(C)C)C(=O)CC[C@@H](C1CCCCC1)N1Cc2cc(Oc3ccccc3)ncc2N=C1N` [Compound 138], the pIC50 was 6.51. In addition, the inhibition at 1 µM under setting [1] is 8%.

For the compound `CC(C)[C@H](CCC(=O)N[C@@H](COC(C)(C)C)c1nnn[nH]1)N1Cc2cc(Oc3ccccc3)ncc2N=C1N` [Compound 97, 4-(2-Amino-6-phenoxy-4H-pyrido[3,4-d]pyrimidin-3-yl)-5-methyl-(S)-hexanoic acid [2-(R)-tert-butoxy-1-(1H-tetrazol-5-yl)-ethyl]-amide], the pIC50 was 6.96. For the same compound, under setting [2], the inhibition at 0.3 µM turned out to be 96%.

Take `Cn1c(CN(CCC(C)(C)C)C(=O)CC[C@@H](C2CCCCC2)N2Cc3cc(Oc4ccccc4)ncc3N=C2N)nc(Cl)c1Cl` [Compound 172]: the pIC50 was 6.77. In addition, under setting [1], the inhibition at 1 µM worked out at 99%.

For the compound `CC(C)[C@H](COCC1CC(C(C)(C)C)=NO1)N1Cc2cc(Oc3ccccc3)ncc2N=C1N` (stereo partly drawn) [Compound 236, 3-[1-(3-tert-Butyl-4,5-dihydro-isoxazol-5-ylmethoxymethyl)-2-methyl-propyl]-6-phenoxy-3,4-dihydro-pyrido[3,4-d]pyrimidin-2-ylamine], the pIC50 was 6.74. For the same compound, under setting [1], the inhibition at 1 µM amounted to 92%.

For the compound `CC(C)(C)CCN(CCN1CCOCC1)C(=O)CC[C@@H](C1CCCCC1)N1Cc2cc(Oc3ccccc3)ncc2N=C1N` [Compound 174], the pIC50 was 7.07. The inhibition at 1 µM under setting [1] was 100%.

Consider `CC(C)(C)CCN(CCC[C@@H](C1CCCCC1)N1Cc2cc(Oc3ccccc3)ncc2N=C1N)CCN1CCOCC1` [Compound 182], for which the pIC50 is 7.05. Further, the inhibition at 1 µM under setting [1] amounted to 100%.

Regarding `NC1=Nc2cnc(Oc3ccccc3)cc2CN1[C@@H](CCCNCC1CC1)C1CCCCC1` [Compound 213], the pIC50 is 6.62. For the same compound, the inhibition at 1 µM under setting [1] is 88%.

Turning to `NC1=Nc2cnc(Oc3ccccc3)cc2CN1[C@@H](CCC(=O)N(CC(=O)O)C1CCCCC1)C1CCCCC1` [Compound 84, {[4-(2-Amino-6-phenoxy-4H-pyrido[3,4-d]pyrimidin-3-yl)-4-(S)-cyclohexyl-butyryl]cyclohexyl-amino}-acetic acid], the pIC50 was 7.00. Also, the inhibition at 0.3 µM under setting [2] was found to be 100%.

With `NC1=Nc2cnc(Oc3ccccc3)cc2CN1[C@@H](CCC(=O)N(Cc1nnc[nH]1)C1CCCCC1)C1CCCCC1` [Compound 80, 4-(2-Amino-6-phenoxy-4H-pyrido[3,4-d]pyrimidin-3-yl)-4-(S),N-dicyclohexyl-N-(4H-[1,2,4]triazol-3-ylmethyl)-butyramide], the pIC50 is 6.77. Under setting [2], the inhibition at 0.3 µM came to 97%.

Regarding `CC(C)[C@H](CCC(=O)N[C@H](COCc1ccccc1)C(=O)O)N1Cc2cc(Oc3ccccc3)ncc2N=C1N` [Compound 54], the pIC50 was 6.77. Moreover, the inhibition at 0.3 µM under setting [2] was 97%.

As for `C[C@@H](O)[C@H](CCC(=O)NCC(C)(C)C)N1Cc2cc(Oc3ccccc3)ncc2N=C1N` [Compound 186, 4-(S)-(2-Amino-6-phenoxy-4H-pyrido[3,4-d]pyrimidin-3-yl)-5-(R)-hydroxy-hexanoic acid (2,2-dimethyl-propyl)-amide], the pIC50 was 6.72. Moreover, the inhibition at 1 µM under setting [1] was 81%.

Regarding `CC(C)CN(CCC[C@@H](C(C)C)N1Cc2cc(Oc3ccccc3)ncc2N=C1N)CCN1CCOCC1` [Compound 193], the pIC50 was 7.27. The inhibition at 1 µM under setting [1] turned out to be 60%.

With `CC(C)CN(C)CCC[C@@H](C1CCCCC1)N1Cc2cc(Oc3ccccc3)ncc2N=C1N` [Compound 209], the pIC50 is 6.92. Under setting [1], the inhibition at 1 µM turned out to be 93%.

Consider `C[C@H](CO)N(C)C(=O)CC[C@@H](C1CCCCC1)N1Cc2cc(Oc3ccccc3)ncc2N=C1N` [Compound 183], for which the pIC50 was 6.24. Also, the inhibition at 1 µM under setting [1] was found to be 70%.

For the compound `NC1=Nc2cnc(Oc3ccccc3)cc2CN1[C@@H](CCC(=O)N1CCC[C@@H]1CO)C1CCCCC1` [Compound 144], the pIC50 was 6.09. Also, the inhibition at 1 µM under setting [1] amounted to 81%.

Take `CC(C)(C)CCN(CCNC(=O)OC(C)(C)C)C(=O)CC[C@@H](C1CCCCC1)N1Cc2cc(Oc3ccccc3)ncc2N=C1N` [Compound 145]: the pIC50 is 7.24. The inhibition at 1 µM under setting [1] was found to be 99%.

For `CC(C)(C)OC[C@@H](NC(=O)CC[C@@H](C1CCCCC1)N1Cc2cc(Oc3ccccc3)ncc2N=C1N)C(=O)N[C@@H](CCC(=O)O)C(=O)O` [Compound 225], the pIC50 is 6.96. The “% Inhibition @ 1.0 μM” value under setting [1] was 96%.
